The text below walks through data of patent publication US7479506B2, “Agent or method for treating severe aphasia in cerebrovascular accident chronic stage” (priority 2003, dated 2009).

The nature of one series: Acute toxicity. Conditions: in vivo. The source says: Acute toxicity of the compound represented by formula (I) was examined and it has been confirmed that this is a compound having high safety.
For series [1] the following is noted: 60 g/day for gait disturbance of cerebellar degeneration; Movement Disorder, 2003, 18, pp. 457-459; cited from earlier work.
The subject of series [2] is aphasia after cerebrovascular accidents. The conditions noted are these: acute phase after cerebrovascular accidents, combination use of speech therapy; cited from earlier work.

As to `NC(=O)CN1CCCC1=O` [piracetam, 2-oxo-1-pyrrolidineacetamide], in the series “Acute toxicity”, the acute toxicity result was “high safety”. In addition, in series [1], the safety result is given as “no problem on its safety”. Also, in series [2], the “therapeutic effect on aphasia” value is recorded as “therapeutic effect of piracetam is found”.
